Source: patent US20060058310A1, “Remedies for vertebral canal stenosis” (priority 2002, published 2006)
“Also recorded” adds a separate entry of the source.

Test system: rat of gait disturbance model by cauda equina compression
Experiment: Walking ability (treadmill) in rat gait disturbance model by cauda equina compression
Assay type: in vivo
Details: spinal canal stenosis model, administered orally for 11 days after the operation, vs negative control (carboxymethylcellulose or toragacanth gum), Dunnett's test, FIG. 1 and FIG. 2
Text: Improvement effect of this invented compound in a rat model of gait disturbance model by cauda equina compression:
<Method of Making an Animal Model>
A rat of gait disturbance model by cauda equina compression was made by the method of Takenobu et al. (J. Neurosci. Methods, 104(2), 191-198 (2002)). Namely, a rat was anesthetized by sodium pentobarbital, removed its dorsal hair and then was fixed its body in the prone position. After disinfection of the back with Chlorhexidine gluconate (5% Hibiten Liquid: Sumitomo Pharmaceuticals), the lumbar was incised along the midline to expose the spine. After excision of the fifth lumbar spinous process, silicon rubber 1×4×1.25 mm (height×length×width) were inserted into the fourth and the sixth lumbar spinal canals from small holes of vertebral arch which was made by mini-drill. […]
The rats were put on the running belt, and adapted to the condition where the grid was sent an electric current (0.04 mA-4 mA) for three minutes or more. […] The distance between the point to walk and the point to give up walk, in other words, the point where it is impossible for them to walk even though the stimulation (sound, contact and electricity) to make them walk was given, was measured with the mileometer built into the equipment. […] The results obtained from the compounds- and negative control-groups were analyzed by the Dunnett's multiple comparison test (*P<0.05). […]

Compound: O=C1C[C@@]2(C(=O)N1)C(=O)N(Cc1ccc(Br)cc1F)C(=O)c1cccn12 [Compound B, (R)-2-(4-bromo-2-fluorobenzyl)spiro[1,2,3,4-tetrahydropyrrolo[1,2-a]pyrazine-4,3′-pyrrolidine]-1,2′,3,5′-tetrone]
- improvement of walking dysfunction (walking distance on treadmill): improved the pathology; also recorded: improved the walking dysfunction
